The source made the active and inactive calls. How the calls were made is not given here.
Tested on: rodent carcinogenicity bioassays, tumor incidence
Test: CCRIS carcinogenicity studies
Procedure, shortened: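 Archive of carcinogenicity, mutagenicity, tumor promotion and tumor inhibition results drawn from journals, NCI reports and other sources, expert-reviewed; covers 1985-2011 and is no longer updated.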

For `Cc1ccc(N)c(C)c1`, the carcinogen call (Species: MOUSE, Strain/Sex: CD-1/FEMALE, Route: ORAL, Tumor Site: Type of Lesion: LUNG) was “active; positive”.
`CCC1(c2ccccc2)C(=O)NCNC1=O` was tested, and the carcinogen call (Species: MOUSE, Strain/Sex: B6C3F1/FEMALE, Route: ORAL, Dose: 0, 300, 600, 1300 PPM IN DIET FOR 104 WK (STUDY DURATION: 104 WK), Dose: 0, 300, 600, 1300 PPM IN DIET FOR 104 WK (STUDY DURATION: 104 WK), Tumor Site: Type of Lesion: LIVER: HEPATOCELLULAR ADENOMA, HEPATOCELLULAR CARCINOMA, OR HEPATOBLASTOMA) was “active; positive”, the carcinogen call (Species: MOUSE, Strain/Sex: B6C3F1/MALE, Route: ORAL, Dose: 0, 300, 600, 1300 PPM IN DIET FOR 104 WK (STUDY DURATION: 104 WK), Dose: 0, 300, 600, 1300 PPM IN DIET FOR 104 WK (STUDY DURATION: 104 WK), Tumor Site: Type of Lesion: LIVER: HEPATOCELLULAR ADENOMA, HEPATOCELLULAR CARCINOMA, OR HEPATOBLASTOMA, THYROID GLAND: FOLLICULAR CELL ADENOMA) was “active; positive” and the carcinogen call (Species: RAT, Strain/Sex: F344/FEMALE, Route: ORAL, Dose: 0, 600, 1300, 2500 PPM IN DIET FOR 104 WK (STUDY DURATION: 104 WK), Dose: 0, 600, 1300, 2500 PPM IN DIET FOR 104 WK (STUDY DURATION: 104 WK)) was “inactive; negative”. The carcinogen call (Species: RAT, Strain/Sex: F344/MALE, Route: ORAL, Dose: 0, 600, 1300, 2500 PPM IN DIET FOR 104 WK (STUDY DURATION: 104 WK), Dose: 0, 600, 1300, 2500 PPM IN DIET FOR 104 WK (STUDY DURATION: 104 WK), Tumor Site: Type of Lesion: THYROID GLAND: FOLLICULAR CELL ADENOMA, FOLLICULAR CELL ADENOMA OR CARCINOMA, KIDNEY: RENAL TUBULE ADENOMA OR CARCINOMA) was “equivocal”.
`O=C1c2ccccc2CN2C(=O)c3ccccc3CN12` was tested, and the carcinogen call (Species: MOUSE, Strain/Sex: BALB/FEMALE, Route: ORAL, Dose: 0, 300, 600, 1200 PPM IN DIET FOR 80 WK (STUDY DURATION: 120 WK), Dose: 0, 300, 600, 1200 PPM IN DIET FOR 80 WK (STUDY DURATION: 120 WK), Tumor Site: Type of Lesion: LIVER: HEPATOCELLULAR ADENOMA OR CARCINOMA, ANGIOSARCOMA) was “active; positive” and the carcinogen call (Species: MOUSE, Strain/Sex: BALB/MALE, Route: ORAL, Dose: 0, 300, 600, 1200 PPM IN DIET FOR 80 WK (STUDY DURATION: 120 WK), Dose: 0, 300, 600, 1200 PPM IN DIET FOR 80 WK (STUDY DURATION: 120 WK), Tumor Site: Type of Lesion: LIVER: ANGIOMA, ANGIOSARCOMA) was “active; positive”.
`C/[N+]([O-])=N/CO[C@@H]1O[C@H](CO)[C@@H](O)[C@H](O)[C@H]1O` was tested, and the carcinogen call (Species: GUINEA PIG, Route: ORAL, Dose: 0, 5% IN DIET OF CYCAD MEAL, 2-3 5-D PERIODS, Tumor Site: Type of Lesion: LIVER: HEPATOCELLULAR CARCINOMA, BILE DUCT) was “active; positive”, the carcinogen call (Species: GUINEA PIG, Route: ORAL, Tumor Site: Type of Lesion: LIVER, BILE DUCT) was “active; positive” and the carcinogen call (Species: HAMSTER, Route: GAVAGE, Dose: 0.1, 0.15 MG/G BW, SINGLE DOSE, Tumor Site: Type of Lesion: LIVER: HEPATOCELLULAR ADENOMA, BILE DUCT: CARCINOMA, HEMANGIOENDOTHELIAL SARCOMA, LUNG: ADENOMA, INTESTINES, KIDNEY: CAR, Tumor Site: Type of Lesion: LIVER: HEPATOCELLULAR ADENOMA, BILE DUCT: CARCINOMA, HEMANGIOENDOTHELIAL SARCOMA, LUNG: ADENOMA, INTESTINES, KIDNEY: CAR) was “active; positive”. For the same compound, the carcinogen call (Species: HAMSTER, Route: ORAL, Tumor Site: Type of Lesion: LIVER, LUNG, INTESTINES, KIDNEY, Tumor Site: Type of Lesion: LIVER, LUNG, INTESTINES, KIDNEY) was “active; positive”, the carcinogen call (Species: HAMSTER, Route: SUBCUTANEOUS, Tumor Site: Type of Lesion: LIVER) was “active; positive” and the carcinogen call (Species: MONKEY, Strain/Sex: AFRICAN GREEN, Route: ORAL, Dose: 0, 3% (50-75 MG/KG) IN DIET OF CRUDE CYCAD MEAL, 5 D/WK FOR UP TO 11 YR, Tumor Site: Type of Lesion: UNSPECIFIED: NEOPLASM) was “active; positive”. The carcinogen call (Species: MONKEY, Strain/Sex: CYNOMOLGUS, Route: ORAL, Dose: 0, 3% (50-75 MG/KG) IN DIET OF CRUDE CYCAD MEAL, 5 D/WK FOR UP TO 11 YR, Tumor Site: Type of Lesion: UNSPECIFIED: NEOPLASM) was “active; positive”, the carcinogen call (Species: MONKEY, Strain/Sex: RHESUS, Route: ORAL, Dose: 0, 3% (50-75 MG/KG) IN DIET OF CRUDE CYCAD MEAL, 5 D/WK FOR UP TO 11 YR, Tumor Site: Type of Lesion: UNSPECIFIED: NEOPLASM) was “active; positive” and the carcinogen call (Species: MOUSE, Route: SUBCUTANEOUS, Tumor Site: Type of Lesion: LIVER, LUNG) was “active; positive”. For the same compound, the carcinogen call (Species: RABBIT, Route: ORAL, Tumor Site: Type of Lesion: LIVER) was “active; positive”, the carcinogen call (Species: RAT, Route: ORAL, Tumor Site: Type of Lesion: INTESTINES, KIDNEY, LIVER, Tumor Site: Type of Lesion: INTESTINES, KIDNEY, LIVER) was “active; positive” and the carcinogen call (Species: RAT, Route: SUBCUTANEOUS, Tumor Site: Type of Lesion: KIDNEY, INTESTINES, LIVER, Tumor Site: Type of Lesion: KIDNEY, INTESTINES, LIVER) was “active; positive”. For the same compound, the carcinogen call (Species: RAT, Strain/Sex: SPRAGUE-DAWLEY/MALE,FEMALE, Route: GAVAGE, Dose: 3 ML/KG BW CYCAD EXTRACT, 1/WK FOR 12 WK, Tumor Site: Type of Lesion: INTESTINES) was “active; positive”, the carcinogen call (Species: RAT, Strain/Sex: SPRAGUE-DAWLEY/MALE,FEMALE, Route: RECTAL, Dose: 50 MG/KG BW INTO INTESTINE 1/WK FOR 12 WK, Tumor Site: Type of Lesion: INTESTINES) was “active; positive” and the carcinogen call (Species: RAT, Strain/Sex: SPRAGUE-DAWLEY/MALE, Route: GAVAGE, Dose: 80, 250 MG/KG, SINGLE DOSE, Tumor Site: Type of Lesion: INTESTINES (COLON OR RECTUM), INTESTINES (JEJUNUM OR ILEUM), DUODENUM, Tumor Site: Type of Lesion: INTESTINES (COLON OR RECTUM), INTESTINES (JEJUNUM OR ILEUM), DUODENUM) was “active; positive”. The carcinogen call (Species: RAT, Strain/Sex: SPRAGUE-DAWLEY/MALE, Route: GAVAGE, Dose: 80 MG/KG, 1/WK FOR 15 WK, Tumor Site: Type of Lesion: INTESTINES (COLON OR RECTUM), INTESTINES (JEJUNUM OR ILEUM)) was “active; positive”.
In the case of `CCCSP(=O)(OCC)SCCC`, the carcinogen call (Species: Mouse, Strain/Sex: B6C3F1/Female (50/Group), Route: Oral, Dose: 0, 0.2, 2, 30 ppm of 94.6% ethoprop in diet for 104 wk, study duration 104 wk, Dose: 0, 0.2, 2, 30 ppm of 94.6% ethoprop in diet for 104 wk, study duration 104 wk) is reported as “inactive; negative”, the carcinogen call (Species: Mouse, Strain/Sex: B6C3F1/Male (50/Group), Route: Oral, Dose: 0, 0.2, 2, 30 ppm of 94.6% ethoprop in diet for 104 wk, study duration 104 wk, Dose: 0, 0.2, 2, 30 ppm of 94.6% ethoprop in diet for 104 wk, study duration 104 wk) is reported as “inactive; negative” and the carcinogen call (Species: Rat, Strain/Sex: Crl:CD(SD)BR VAF/Plus/Female (80-90/Group), Route: Oral, Dose: 0, 60, 400 (reduced from 600 during wk 3) ppm of 95.6% ethoprop in diet for 104 wk, study duration 104 wk, Dose: 0, 60, 400 (reduced from 600 during wk 3) ppm of 95.6% ethoprop in diet for 104 wk, study duration 104 wk) is reported as “inactive; negative”. The carcinogen call (Species: Rat, Strain/Sex: Crl:CD(SD)BR VAF/Plus/Male (80-90/Group), Route: Oral, Dose: 0, 60, 400 (reduced from 600 during wk 3) ppm of 95.6% ethoprop in diet for 104 wk, study duration 104 wk, Dose: 0, 60, 400 (reduced from 600 during wk 3) ppm of 95.6% ethoprop in diet for 104 wk, study duration 104 wk) was “inactive; negative”.
With `CCC(C)OC(OC(C)CC)C(=O)c1ccccc1` (stereo not drawn) the carcinogen call (Species: MOUSE, Strain/Sex: C3H/HEJ/MALE, Route: DERMAL, Dose: 0, 22.4 MG UNDILUTED 3/WK FOR LIFESPAN (STUDY DURATION: LIFESPAN)) was “inactive; negative”.
`CC(C)CBr` was tested, and the carcinogen call (Species: MOUSE, Route: INTRAPERITONEAL, Tumor Site: Type of Lesion: LUNG) was “active; positive”.
With `ClCC(Cl)(Cl)Cl` the carcinogen call (Species: MOUSE, Strain/Sex: B6C3F1/FEMALE, Route: GAVAGE, Dose: 0, 250, 500 MG/KG IN CORN OIL, Dose: 0, 250, 500 MG/KG IN CORN OIL, Tumor Site: Type of Lesion: LIVER: HEPATOCELLULAR ADENOMA OR CARCINOMA) was “active; positive”, the carcinogen call (Species: MOUSE, Strain/Sex: B6C3F1/MALE, Route: GAVAGE, Dose: 0, 250, 500 MG/KG IN CORN OIL, Dose: 0, 250, 500 MG/KG IN CORN OIL, Tumor Site: Type of Lesion: LIVER: HEPATOCELLULAR ADENOMA) was “active; positive” and the carcinogen call (Species: RAT, Strain/Sex: F344/FEMALE, Route: GAVAGE, Dose: 0, 125, 250 MG/KG IN CORN OIL 5 D/WK FOR 103 WK (STUDY DURATION: 103 WK), Dose: 0, 125, 250 MG/KG IN CORN OIL 5 D/WK FOR 103 WK (STUDY DURATION: 103 WK)) was “inactive; negative”. For the same compound, the carcinogen call (Species: RAT, Strain/Sex: F344/MALE, Route: GAVAGE, Dose: 0, 125, 250 MG/KG IN CORN OIL 5 D/WK FOR 103 WK (STUDY DURATION: 103 WK), Dose: 0, 125, 250 MG/KG IN CORN OIL 5 D/WK FOR 103 WK (STUDY DURATION: 103 WK), Tumor Site: Type of Lesion: LIVER: NEOPLASTIC NODULE, HEPATOCELLULAR CARCINOMA) was “equivocal”.

Reference: PubChem BioAssay AID1259411 (Chemical Carcinogenesis Research Information System (CCRIS), 2018)
